Data taken from US6515140B2, “Fused pyrrolecarboxamides; a new class of GABA brain receptor ligands” (Neurogen Corporation, priority 1996, dated 2003).

melting point | Compound
216 to 218 °C | CN(C)Cc1ccc(NC(=O)c2c[nH]c3c2C(=O)CCC3)cc1 [Compound 23, N-[4-(Dimethylaminomethyl)phenyl]-4-oxo-4,5,6,7-tetrahydro-1H-indole-3-carboxamide]
217 to 219 °C | CNCc1ccc(NC(=O)c2c[nH]c3c2C(=O)CC(C)C3)cc1 (stereo not drawn) [Compound 27, N-[4-(Methylaminomethyl)phenyl]-4-oxo-6-methyl-4,5,6,7-tetrahydro-1H-indole-3-carboxamide]
260 to 262 °C | CC1CC(=O)c2c(C(=O)Nc3ccc(CO)cc3)c[nH]c2C1 (stereo not drawn) [Compound 28, N-[4-(Hydroxymethyl)phenyl]-4-oxo-6-methyl-4,5,6,7-tetrahydro-1H-indole-3-carboxamide]
268 to 270 °C | CC1(C)CC(=O)c2c(C(=O)Nc3ccc(OCCO)cc3)c[nH]c2C1 [Compound 30, N-[4-(2-Hydroxyethoxy)phenyl]-4-oxo-6,6-dimethyl-4,5,6,7-tetrahydro-1H-indole-3-carboxamide]
245 to 247 °C | CC1(C)CC(=O)c2c(C(=O)Nc3ccc(CO)cc3)c[nH]c2C1 [Compound 31, N-[4-(Hydroxymethyl)phenyl]-4-oxo-6,6-dimethyl-4,5,6,7-tetrahydro-1H-indole-3-carboxamide]
230 to 232 °C | CNCc1ccc(NC(=O)c2c[nH]c3c2C(=O)CC(C)(C)C3)cc1 [Compound 32, N-[4-(Methylaminomethyl)phenyl]-4-oxo-6,6-dimethyl-4,5,6,7-tetrahydro-1H-indole-3-carboxamide]
216 °C | O=C(Nc1ccc2c(c1)NCCO2)c1c[nH]c2c1C(=O)CCC2 [Compound 33, N-(3,4-Dihydro-2H-1,4-benzoxazin-6-yl)-4-oxo-4,5,6,7-tetrahydro-1H-indole-3-carboxamide]
283 to 286 °C | O=C(Nc1ccc2c(c1)CCN2)c1c[nH]c2c1C(=O)CCC2 [Compound 35, N-(2,3-Dihydro-1H-indol-5-yl)4-oxo-4,5,6,7-tetrahydro-1H-indole-3-carboxamide]
241 to 243 °C | CC1(C)CCc2[nH]cc(C(=O)Nc3ccc4c(c3)OCCO4)c2C1=O [Compound 37, N-(2,3-Dihydro-1,4-benzodioxin-6-yl)-4-oxo-5,5-dimethyl-4,5,6,7-tetrahydro-1H-indole-3-carboxamide]
251 to 252 °C | CC1(C)CCc2[nH]cc(C(=O)Nc3ccc4c(c3)OCOC4)c2C1=O [Compound 38, N-(4H-1,3-Benzodioxin-7-yl)-4-oxo-5,5-dimethyl-4,5,6,7-tetrahydro-1H-indole-3-carboxamide]
210 to 212 °C | O=C(Nc1ccc2c(c1)OCO2)c1c[nH]c2c1C(=O)CCCC2 [Compound 39, N-(1,3-Benzodioxol-5-yl)-4-oxo-1,4,5,6,7,8-hexahydro-cyclohepta[b]pyrrole-3-carboxamide]
155 to 157 °C | CC1CC(=O)c2c(C(=O)Nc3ccc4c(c3)OC(C)(C)O4)c[nH]c2C1 (stereo not drawn) [Compound 40, N-(2,2-Dimethyl-1,3-benzodioxol-5-yl)-4-oxo-6-methyl-4,5,6,7-tetrahydro-1H-indole-3-carboxamide]
297 to 299 °C | CC1CC(=O)c2c(C(=O)Nc3ccc4c(c3)OCO4)c[nH]c2C1 (stereo not drawn) [Compound 41, N-(1,3-Benzodioxol-5-yl)-4-oxo-6-methyl-4,5,6,7-tetrahydro-1H-indole-3-carboxamide]
290 to 292 °C | CC1CC(=O)c2c(C(=O)Nc3ccc4c(c3)OCCO4)c[nH]c2C1 (stereo not drawn) [Compound 42, N-(2,3-Dihydro-1,4-benzodioxin-6-yl)-4-oxo-6-methyl-4,5,6,7-tetrahydro-1H-indole-3-carboxamide]
245 to 246 °C | CC1(C)CC(=O)c2c(C(=O)Nc3ccc4c(c3)OCO4)c[nH]c2C1 [Compound 43, N-(1,3-Benzodioxol-5-yl)-4-oxo-6,6-dimethyl-4,5,6,7-tetrahydro-1H-indole-3-carboxamide]
234 to 236 °C | CC1(C)CC(=O)c2c(C(=O)Nc3ccc4c(c3)OCOC4)c[nH]c2C1 [Compound 45, N-(4H-1,3-Benzodioxin-7-yl)-4-oxo-6,6-dimethyl-4,5,6,7-tetrahydro-1H-indole-3-carboxamide]

The remaining lines, values behind:

Compound | melting point
CCNCCOc1ccncc1NC(=O)c1c[nH]c2c1C(=O)CCC2.Cl | 178 to 180 °C
CCCNCCOc1ccncc1NC(=O)c1c[nH]c2c1C(=O)CCC2.Cl | 177 to 178 °C
CC(C)NCCOc1ccncc1NC(=O)c1c[nH]c2c1C(=O)CCC2.Cl | 167 to 169 °C
CCCCNCCOc1ccncc1NC(=O)c1c[nH]c2c1C(=O)CCC2.Cl | 157 to 159 °C
Cl.O=C(Nc1cnccc1OCCNCc1ccccc1)c1c[nH]c2c1C(=O)CCC2 | 143 to 145 °C
Cl.O=C(Nc1cnccc1OCc1cccnc1)c1c[nH]c2c1C(=O)CCC2 | 276 to 277 °C
Cl.O=C(Nc1cnccc1OCc1ccncc1)c1c[nH]c2c1C(=O)CCC2 | 293 °C
Cl.O=C(Nc1cnccc1OCCN1CCCC1)c1c[nH]c2c1C(=O)CCC2 | 188 to 245 °C (dec.)
Cl.O=C(Nc1cnccc1OCCN1CCCCC1)c1c[nH]c2c1C(=O)CCC2 | 208 to 211 °C
CCNCCOc1ccc(NC(=O)c2c[nH]c3c2C(=O)CCCC3)cc1.Cl | 227 to 228 °C
Cl.O=C(Nc1cnccc1OCc1ccncc1)c1c[nH]c2c1C(=O)CCCC2 | 235 to 240 °C (dec.)
Cl.O=C(Nc1cnccc1OCCN1CCCC1)c1c[nH]c2c1C(=O)CCCC2 | 160 to 162 °C
CCCNCCOc1ccncc1NC(=O)c1c[nH]c2c1C(=O)CCCC2.Cl | 210 °C
CCN(CC)CCN(C)C(=O)COc1ccc(NC(=O)c2c[nH]c3c2C(=O)CCC3)cc1 | 220 to 228 °C
CCN(CC)CCN(CC)C(=O)COc1ccc(NC(=O)c2c[nH]c3c2C(=O)CCC3)cc1 | 165 to 167 °C
CCCNCCOc1ccc(NC(=O)c2c[nH]c3c2C(=O)CCC3)cc1F.Cl | 373 °C
CCCCNCCOc1ccc(NC(=O)c2c[nH]c3c2C(=O)CCC3)cc1.Cl | 187 to 190 °C
Cl.O=C(Nc1ccc(OCC2CCCNC2)cc1)c1c[nH]c2c1C(=O)CCC2 (stereo not drawn) | 196 to 199 °C
O=C(Nc1ccc(OCCO)cc1)c1c[nH]c2c1C(=O)CCC2 [Compound 16, N-[4-(Hydroxyethoxy)phenyl]-4-oxo-4,5,6,7-tetrahydro-1H-indole-3-carboxamide] | 245 to 247 °C
COCc1ccc(NC(=O)c2c[nH]c3c2C(=O)CCC3)cc1 [Compound 18, N-[4-(Methoxymethyl)phenyl]-4-oxo-4,5,6,7-tetrahydro-1H-indole-3-carboxamide] | 164 to 165 °C
CNCc1ccc(NC(=O)c2c[nH]c3c2C(=O)CCC3)cc1 [Compound 19, N-[4-(Methylaminomethyl)phenyl]-4-oxo-4,5,6,7-tetrahydro-1H-indole-3-carboxamide] | 217 to 219 °C
CCNCc1ccc(NC(=O)c2c[nH]c3c2C(=O)CCC3)cc1 [Compound 21, N-[4-(Ethylaminomethyl)phenyl]-4-oxo-4,5,6,7-tetrahydro-1H-indole-3-carboxamide] | 194 to 195 °C
CC(C)NCc1ccc(NC(=O)c2c[nH]c3c2C(=O)CCC3)cc1 [Compound 22, N-[4-(Isopropylaminomethyl)phenyl]-4-oxo-4,5,6,7-tetrahydro-1H-indole-3-carboxamide] | 164 to 166 °C
